The values below come from patent publication US6114390A, “Amino acid derivatives, pharmaceutical compositions containing these compounds and processes for preparing them” (Karl Thomae GmbH, priority 1997, dated 2000).

pIC50: −log10 of the molar value. Some results are limits rather than exact numbers.

The test system of test [1] is NPY. Nature of the test: In vivo NPY-antagonism, NPY-induced blood pressure effects in pithed rats. The following applies: Rattus norvegicus, iv, 1 min, NPY 10 μg/kg i.v., diastolic blood pressure, read-out: pIC50 (in vivo NPY-antagonism) (converted). How it is done:
After intubation of the trachea the animals are pithed by introducing a blunt needle through the eye into the spinal bone marrow channel. The animals are ventilated with oxygen-rich ambient air using a respiratory pump (20 strokes/minute). A cannula is inserted in the left carotid artery and the arterial blood pressure is measured using a pressure gauge (Braun Melsungen Combitrans) connected to a recording device. For injection purposes a catheter is placed in the left jugular vein through which heparin is administered (200 IU/kg, i.v.). After the blood pressure has been stabilised, the animals are given 2 bolus injections of NPY (10 μg/kg, i.v.) at intervals of 15 minutes. The average increase in diastolic blood pressure is taken as the reference value (=100%). The test substances are injected in increasing doses (4 to 6 doses) at intervals of 15 minutes. One minute after administration of the test substance, NPY is administered.
The antagonistic effect of the test substances is determined by plotting the percentage inhibition of the NPY-induced blood pressure effects against the logarithm of the concentration of active substance.

The target of test [2] is T1, human Y4 receptor (Homo sapiens, UniProt P50391).
T1 construct: expressed in transfected cells; host or cells: CHO
T1 sequence (P50391 whole entry): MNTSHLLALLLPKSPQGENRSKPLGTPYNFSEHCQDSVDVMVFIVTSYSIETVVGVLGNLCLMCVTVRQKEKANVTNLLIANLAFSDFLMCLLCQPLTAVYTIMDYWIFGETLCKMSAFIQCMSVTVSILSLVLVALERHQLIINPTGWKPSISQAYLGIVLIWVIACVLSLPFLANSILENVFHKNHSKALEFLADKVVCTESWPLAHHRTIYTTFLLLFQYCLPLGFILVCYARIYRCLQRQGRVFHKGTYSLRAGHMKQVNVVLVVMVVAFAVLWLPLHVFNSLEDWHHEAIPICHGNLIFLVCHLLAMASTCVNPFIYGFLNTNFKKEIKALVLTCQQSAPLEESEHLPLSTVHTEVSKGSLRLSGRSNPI
Nature of the test: Receptor binding, CHO cells transiently transfected with human Y4 receptor. The following applies: means ± S.E.M. of 3 to 5 experiments, read-out: Affinity IC50, humanY4/CHO. How it is done: (§1) CHO cells transiently transfected with human Y4 and rat Y5 receptor: Transfection was performed using the lipofectamine method according to the manufacturer's protocol (GIBCO BRL Eggenstein, Germany) using expression plasmids encoding the rat Y5 or human Y4 receptor, respectively. Receptor binding was performed as described for rat Y1 expressing HEK 293 cells.

Test [3] deals with NPY induced food intake. Nature of the test: Food intake in satiated rats after NPY application to the PVN. The class given is in vivo, rat. The following applies: for % Inhibition of food intake: PVN, 2 h, 1 μg NPY. As for the experimental part:
For these determinations food intake was measured in normal satiated rats after application of NPY to the paraventricular nucleus (PVN) in the presence or absence of the test compound. […] The rats were individually housed in stainless steel cages where water and food were available ad libitum.
Rats under Pentobarbital anaesthesia were stereotactically implanted with a stainless steel double guide cannula targeted bilaterally at the PVNs. Stereotactic coordinates were: -1.8mm caudal, 0.5mm lateral to bregma and 7.0 mm below the skull surface. Injection cannulae extended the guide cannulae by 1 mm. Animals were allowed to recover from surgery for at least 10 days before being used in the experiments. Rats were handled and mock-injected during the […] recovery period to habituate them to the injection procedure.
Animals treated with both test compounds and NPY were treated first with the test compound. Then, 15 min. after PVN infusion of the test compound or vehicle (control) 1 μg of NPY was administered by PVN infusion.
Food intake was measured by placing preweighed pellets into the cages at the time of NPY injection. Pellets were removed from the cage at 2 h post NPY injection. The food intake of animals treated with test compound was calculated as a percentage of the food intake of control animals, i.e., animals treated with vehicle.

Test [4] addresses T2, rat Y5 receptor (Rattus norvegicus, UniProt Q63634).
T2 construct: expressed in transfected cells; host or cells: CHO
T2 sequence (Q63634 1-445): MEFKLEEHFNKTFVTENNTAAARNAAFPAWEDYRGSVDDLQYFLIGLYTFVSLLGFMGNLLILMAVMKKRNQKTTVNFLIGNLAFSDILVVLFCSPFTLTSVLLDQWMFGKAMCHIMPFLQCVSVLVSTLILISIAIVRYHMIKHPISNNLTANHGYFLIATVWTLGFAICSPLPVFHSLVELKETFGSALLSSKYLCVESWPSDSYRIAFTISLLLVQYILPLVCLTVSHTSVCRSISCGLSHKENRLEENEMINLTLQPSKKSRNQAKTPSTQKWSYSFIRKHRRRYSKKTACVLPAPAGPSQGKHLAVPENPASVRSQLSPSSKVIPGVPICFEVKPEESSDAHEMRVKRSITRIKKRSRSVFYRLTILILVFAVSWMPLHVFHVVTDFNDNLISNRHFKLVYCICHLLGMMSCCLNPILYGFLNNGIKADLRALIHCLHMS
Nature of the test: Receptor binding, CHO cells transiently transfected with rat Y5 receptor. The conditions noted are these: means ± S.E.M. of 3 to 5 experiments, read-out: Affinity IC50, ratY5/CHO. As for the experimental part: as §1

A short description of test [5]: Food intake in food-deprived rats. It is filed as in vivo, rat. The conditions noted are these: 15 μg, bilaterally, PVN. As for the experimental part: Food-deprivation experiments were conducted with male Chbb:Thom rats weighing between 300 and 350 g. The animals were individually housed for the duration of the study and allowed free access to normal food together with tap water. Food was removed from the animals for 24 hours starting at 8:00 a.m. At the end of the fasting period compound or vehicle was administered to the animals by infusion into the PVN. Food was returned to the animals and their food intake monitored at various time periods during the following 24 hour period. The food intake of animals treated with test compound was calculated as a percentage of the food intake of control animals (i.e., animals treated with vehicle).

Test [6] concerns the target T3, human Y5 receptor (Homo sapiens, UniProt Q15761).
T3 construct: expressed in transfected cells; host or cells: HEK 293
T3 sequence (Q15761 1-445): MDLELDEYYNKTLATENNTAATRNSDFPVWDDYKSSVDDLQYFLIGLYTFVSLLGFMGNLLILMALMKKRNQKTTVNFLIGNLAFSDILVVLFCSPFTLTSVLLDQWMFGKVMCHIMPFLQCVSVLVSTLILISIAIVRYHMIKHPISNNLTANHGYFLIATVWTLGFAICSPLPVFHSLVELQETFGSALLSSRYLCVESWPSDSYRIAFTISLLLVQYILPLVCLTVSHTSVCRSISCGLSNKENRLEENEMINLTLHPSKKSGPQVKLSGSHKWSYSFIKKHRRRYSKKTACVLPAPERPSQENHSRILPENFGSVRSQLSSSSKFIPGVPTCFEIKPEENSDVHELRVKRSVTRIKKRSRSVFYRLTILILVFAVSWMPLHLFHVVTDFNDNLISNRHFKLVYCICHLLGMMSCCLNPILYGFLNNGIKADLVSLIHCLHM
Nature of the test: Receptor binding, HEK 293 cells stably transfected with human Y5 receptor. The conditions noted are these: read-out: Affinity IC50, humanY5/293. How it is done:
HEK 293 cells stably transfected with human Y5 receptor:
Centrifugated cells were cultivated as described for BHK/Y1 cells except that a concentration of 0.7 mg/ml G-418 was used, no hygromycin added and no IPTG induction was necessary. The incubation buffer, cell cultivation and receptor binding was performed as described. Final concentration was 1.5×10^6 cells/ml and centrifugation stopped as described for Y1/BHK cells.

Take `N=C(N)NCCC[C@@H](NC(=O)C(c1ccccc1)c1ccccc1)C(=O)NCc1ccc(CNC(N)=O)cc1` [Compound C]: the ED50 in test [1] is 0.00776 µmol/kg. In addition, the pIC50 in test [2] is 4.91; in test [4], 4.68; in test [6] it was under 5.00. In addition, in test [3], the “NPY induced food intake (result in words)” value is “reduced”. Further, the “% Inhibition of food intake” value in test [3] (15 μg) came out at 25.9%; in test [3] (30 μg), 52.8%; in test [3] (60 μg) it was 69.8%. The “food intake in 24 hour food deprived rats (result in words)” value in test [5] is listed as “significant reduction in food intake”.
